Assay results as given in US12616759B2, “Uses of labeled HSP90 inhibitors” (Sloan-Kettering Institute for Cancer Research, priority 2011, dated 2026).

Tests used:
[1] = test system: FL5.12 mAKT-transfected cells; assay: apoptosis in mAKT-transfected FL5.12 cells; format: cell-based
Text: FL5.12 was derived as an interleukin-3 (IL-3)-dependent cell line with a functional JAK/STAT pathway and it has characteristic features of an early lymphocytic progenitor. Both the parental cells and the transfected cells express moderate-levels of active AKT and STAT5, as evidenced by AKT phosphorylation on Ser473 and STAT5 phosphorylation on Tyr694, respectively. The level of p-STAT5 but not p-AKT is dependent on the presence of IL-3. Introduction of a constitutively activated, myristoylated form of AKT (mAKT) under the control of a doxycycline (DOX)-inducible promoter further allows for the regulation of p-AKT levels in these cells. All together, these cells are a good isogenic model to evaluate the dependence of HSP90 inhibitor apoptotic sensitivity on activated AKT and STAT5-pathways.
Cells: Kasumi-1, SKNO-1, MOLM-13, MO-91, HEL, HL-60, THP-1, MV4-11 were grown in RPMI media supplemented with 10 mM HEPES, 4.5 g/L glucose, 1.5 g/L sodium bicarbonate, 1 mM sodium pyruvate, 10% FBS, and 1% penicillin/streptomycin. The stable transfectants of FL5.12 were previously described (18-Karnauskas 2003). In brief, for the generation of FL5.mAKT the myristylated AKT was cloned in the doxycycline inducible vector pRevTRE (Clontech) (this clone is designated mAKT). As a control, cell were transfected with vector alone (this clone is designated Vector). For generation of FL5.mAkt.Bcl-xL, the human Bcl-xL cDNA was cloned into the EcoRI site of the pBabePuro vector, and transfected into FL5.mAkt3 as described (18) (this clone is designated mAKT.Bcl-xL). These lines were cultured as described previously using DME-HG media supplemented with 10 mM HEPES, 10% FBS media containing 1 mg/ml Geneticin (G418) (Sigma #G9516) and 1 or 2 ng/mL of IL-3 (RD Systems #403 ML).
(§1) Apoptosis Assay: Cells were treated for 24, 48 or 72 h with vehicle (DMSO) or inhibitors as indicated. Following staining with Acridine Orange and Ethidium Bromide (1:1 mix of 100 µg/ml), cells were visualized with a fluorescent microscope (Zeiss Axiovert 40 CFL) and counted. Percentage of apoptotic cells was determined from 200-300 cells counted in each group. The percentage of apoptotic cells was calculated as: % Apoptotic cells=(total number of cells with apoptotic nuclei/total number of cells counted)×100.
Western blot: Cells were grown to 60-70% confluence and treated with inhibitor or vehicle for the indicated times. Protein lysates were prepared in 50 mM Tris pH 7.4, 150 mM NaCl and 1% NP-40 lysis buffer. Protein concentrations were measured using the BCA kit (Pierce) according to the manufacturer's instructions. Protein lysates (10-100 μg) were resolved by SDS-PAGE, transferred onto nitrocellulose membrane and incubated with the indicated primary antibodies. […]

AML cell lines = assay: apoptosis in AML cell lines, acridine orange/ethidium bromide; format: cell-based, human
Method: as §1

HSP90 [2] = assay: concomitant HSP90-streptavidin binding in live K562 cells; format: cell-based; details: for HSP90-streptavidin binding with K562 cells: live cells
Text: Having shown that some of the molecules bind concomitantly to HSP90 and streptavidin, we next investigated whether this can similarly be accomplished in live cells.

HSP90 [3] = assay: fluorescence polarization HSP90 binding assay using SKBr3 cancer cell lysate; details: fluorescence polarization
HSP90 [4] = assay: concomitant binding to HSP90 and streptavidin, K562 lysate; details: 100 μM; for HSP90-streptavidin binding with K562 lysate: streptavidin beads, overnight; for band at approximately 90 kDa, concomitant binding to HSP90 and streptavidin: K562 lysate, SDS-PAGE
Method: Having shown that each of the prepared biotinylated molecules retain good affinity to HSP90 we next wanted to determine whether the chain length was sufficient to maintain concomitant binding to HSP90 and streptavidin. […] Following sufficient washing to remove any unbound material, the remaining bead pellet was analyzed by SDS-PAGE. The gel was washed and stained with coomasie blue for 1 h.

lung and bone metastases = assay: response of breast cancer patient to STA9090 by CT and FDG-PET; format: in vivo, human; details: triple-negative breast cancer patient
Method: FIGS. 28A, 28B, 28C, and 28D. A triple-negative breast cancer patient was imaged with ^124I-PU-H71 PET. At 20 min post-injection, uptake is noted in a lung mass (left arrow), and a bone lesion (right arrow) FIG. 28A, but at 24 h uptake is seen only in the lung lesion FIG. 28B. Both the lung and bone tumors are confirmed by CT and FDG-scans FIG. 28C. The patient started treatment with the HSP90 inhibitor STA-9090.
In another aspect of the present invention, patients who are identified as being candidates for HSP90 therapy are treated with a pharmaceutically effective amount of an HSP90 inhibitor. We have determined that cancer patients that are determined to be candidates to HSP90 inhibition therapy respond highly favorably to HSP90 inhibition therapy. If a patient has multiple tumors, then only those tumors with a sufficient avidity for the radiolabeled HSP90 inhibitor are expected to respond to HSP90 inhibition therapy. […] Similar results were obtained in patients with lymphoma, pancreatic cancer and neuroblastoma patients.

EC50 (HSP90 [3]) [nM]	HSP90-streptavidin binding with K562 lysate (HSP90 [4])	band at approximately 90 kDa, concomitant binding to HSP90 and streptavidin (HSP90 [4])	SMILES	HSP90-streptavidin binding with K562 cells (HSP90 [2]; 100 μM, 4 h)	binding in live K562 cells (HSP90 [2]; 100 μM, 4 h)	further results
–	–	–	O=c1[nH]c2ccccc2n1C1CCN(Cc2ccc(-c3nc4cc5[nH]cnc5cc4nc3-c3ccccc3)cc2)CC1 [AKTi, reference compound]	–	–	apoptotic cells ([1]; AKT activity increased by DOX): 30%; apoptotic cells ([1]; without DOX): 15-20%; effect on apoptosis (AML cell lines; HEL cells in culture): little to no effect
–	–	–	COc1cccc(-c2cc(=O)c3ccccc3o2)c1N [MEKi, reference compound]	–	–	induction of apoptosis (AML cell lines; 24, 48 and 72 h): Modest or little induction of apoptosis
154	No	did not show a band at 90 kDa	CC(C)N(CCCn1c(Sc2cc3c(cc2I)OCO3)nc2c(N)ncnc21)C(=O)CCCC[C@@H]1SC[C@@H]2NC(=O)N[C@@H]21 [PU-H71-biotin2]	No	–	–
44.3	No	did not show a band at 90 kDa	Nc1ncnc2c1nc(Sc1cc3c(cc1I)OCO3)n2CCCNC(=O)CCCC[C@@H]1SC[C@@H]2NC(=O)N[C@@H]21 [PU-H71-biotin3]	No	–	–
34.8	No	did not show a band at 90 kDa	Nc1ncnc2c1nc(Sc1cc3c(cc1I)OCO3)n2CCCNC(=O)CCCCCNC(=O)CCCC[C@@H]1SC[C@@H]2NC(=O)N[C@@H]21 [PU-H71-biotin4]	No	–	–
31.4	Yes	show a band at approximately 90 kDa	Nc1ncnc2c1nc(Sc1cc3c(cc1I)OCO3)n2CCCNC(=O)CCCCCNC(=O)CCCCCNC(=O)CCCC[C@@H]1SC[C@@H]2NC(=O)N[C@@H]21 [PU-H71-biotin5]	Yes	are able to permeate the cell membrane	–
66.2	Yes	show a band at approximately 90 kDa	Nc1ncnc2c1nc(Sc1cc3c(cc1I)OCO3)n2CCCNC(=O)CCOCCOCCOCCOCCNC(=O)CCCC[C@@H]1SC[C@@H]2NC(=O)N[C@@H]21 [PU-H71-biotin6]	Yes	are able to permeate the cell membrane	band at approximately 90 kDa (HSP90 [2]; 0.5 μM): still shows a faint band; binding in live K562 cells (HSP90 [2]; 10 μM): maintain good binding; band at approximately 90 kDa (HSP90 [2]; lowest concentration 1 μM): a faint band is still present
72.8	No	did not show a band at 90 kDa	CC(C)N(CCCn1c(Sc2cc3c(cc2I)OCO3)nc2c(N)ncnc21)C(=O)CCCCCNC(=O)CCCC[C@@H]1SC[C@@H]2NC(=O)N[C@@H]21 [PU-H71-biotin7]	No	–	–
76.9	Yes	show a band at approximately 90 kDa	CC(C)N(CCCn1c(Sc2cc3c(cc2I)OCO3)nc2c(N)ncnc21)C(=O)CCCCCNC(=O)CCCCCNC(=O)CCCC[C@@H]1SC[C@@H]2NC(=O)N[C@@H]21 [PU-H71-biotin8]	Yes	are able to permeate the cell membrane	–
110	Yes	show a band at approximately 90 kDa	CC(C)N(CCCn1c(Sc2cc3c(cc2I)OCO3)nc2c(N)ncnc21)C(=O)CCOCCOCCOCCOCCNC(=O)CCCC[C@@H]1SC[C@@H]2NC(=O)N[C@@H]21 [PU-H71-biotin9]	Yes	are able to permeate the cell membrane	binding in live K562 cells (HSP90 [2]; 10 μM): maintain good binding; band at approximately 90 kDa (HSP90 [2]; lowest concentration 1 μM): a faint band is still present
58.9	Yes	show a band at approximately 90 kDa	Nc1ncnc2c1nc(Sc1cc3c(cc1I)OCO3)n2CCCNCCOCCOCCOCCNC(=O)CCCC[C@@H]1SC[C@@H]2NC(=O)N[C@@H]21 [PU-H71-biotin]	No	failed to maintain binding in live cells	–
–	–	–	CC(C)c1cc(-c2n[nH]c(=O)n2-c2ccc3c(ccn3C)c2)c(O)cc1O [STA9090]	–	–	tumor response (lung and bone metastases): early partial response was demonstrated by FDG PET-CT studies in the lung mass but not in the spinal lesion; tumor response (lung and bone metastases; listed as STA-9090): the lung but not the bone lesion is remarkably reduced in size
